Measurements published in US20110184017A1, “STABLE AQUEOUS SOLUTION COMPOSITION CONTAINING SULFONAMIDE COMPOUND” (ASAHI KASEI PHARMA CORPORATION, priority 2008, published 2011).
“Also recorded” adds a separate entry of the source.

Key:
Japanese white rabbits = experiment: Rabbit intraocular pressure reduction test; assay type: in vivo; settings: FIG. 1
Procedure: In order to examine difference in the intraocular pressure reducing effect depending on a different pH of (S)-1-(4-chloro-5-isoquinolinesulfonyl)-3-(methylamino)pyrrolidine solution, the following test was performed by using Japanese white rabbits as experimental animals.
(S)-1-(4-Chloro-5-isoquinolinesulfonyl)-3-(methylamino)pyrrolidine hydrochloride obtained by the method described in International Patent Publication WO2007/026664 was dissolved in physiological saline, the solution was adjusted to pH 4, 5, 6, 7, 8 and 9 by adding sodium hydroxide, and the final concentration was adjusted to 0.5 mM. These solutions were used as (S)-1-(4-chloro-5-isoquinolinesulfonyl)-3-(methylamino)pyrrolidine solutions having different pH values.
The rabbits used were sufficiently conditioned for ophathalmic tonometry test, and used as groups each consisting of 6 animals. After a Benoxil ophthalmic solution 0.4% (an ophthalmologic local anesthesant, Santen Pharmaceutical Co., Ltd.) was applied to both eyes of each rabbit, intraocular pressure value before instillation was measured (initial intraocular pressure value, both right and left eyes) by using an ophathalmic tonometer (Model 30 Classic, Solan). […] After 2, 4, and 6 hours from the instillation, each rabbit was topically anesthetized with the an ophthalmologic local anesthesant, and intraocular pressure values of the both eyes were measured. […]

Photostability test = assay type: physicochemical; settings: aqueous solution; estimated from similar absorption spectrum
Procedure: In the following test, LT-120D3CJ (Nagano Science Co., Ltd.) was used as a photostability tester. Purity of (S)-1-(4-chloro-5-isoquinolinesulfonyl)-3-(methylamino)pyrrolidine in the samples of the examples and the comparative example was measured by the liquid chromatography method described in Test Example 2.
The samples of Example 5 and Comparative Example 3 were subjected to light irradiation at 5,000 lux for ten days […] at 25° C. by using a D65 daylight fluorescent lamp installed in the photostability tester. As the photostability tester, an apparatus was used that was capable of uniformly irradiating the samples with light by turning a table. The illumination was 5,000 lux, and 1,200,000 lux·hr in total was irradiated over ten days. The accumulated near-ultraviolet energy during the photostability test was 474 to 488 W·h/m^2.
2) Purities of (S)-1-(4-chloro-5-isoquinolinesulfonyl)-3-(methylamino)pyrrolidine in the solutions of the light-irradiated samples were compared with that of a sample stored at 5° C. in a dark place.

SMILES	intraocular pressure reducing action (Japanese white rabbits; 0.5 mM solutions adjusted to pH 4, 5, 6, 7, 8 and 9, instillation to normal rabbits, 2, 4 and 6 hours)	intraocular pressure reducing action (Japanese white rabbits; 0.5 mM solutions at pH 7 to 9, instillation to rabbits)	photostability properties compared with the (methylamino)pyrrolidine compound (Photostability test)
CN[C@H]1CCN(S(=O)(=O)c2cccc3cncc(Cl)c23)C1 [(S)-1-(4-chloro-5-isoquinolinesulfonyl)-3-(methylamino)pyrrolidine]	more strongly exhibited when a pH became higher in the range of pH 4 to 9; also recorded: became higher in a pH-dependent manner	strongly exhibited	
N[C@H]1CCN(S(=O)(=O)c2cccc3cncc(Cl)c23)C1 [(S)-1-(4-chloro-5-isoquinolinesulfonyl)-3-aminopyrrolidine]			similar
